Assay results as given in ChEMBL document CHEMBL5226291, “The race to treat COVID-19: Potential therapeutic agents for the prevention and treatment of SARS-CoV-2” (Eur J Med Chem, 2021).
Converted amounts (≈) assume the structure as drawn. Square brackets hold non-standard residues; d marks the D form. Peptide text beside a SMILES is read from it. * marks the point of attachment. ξ: configuration not given here. Decanoyl = CCCCCCCCCC(=O)*; ξF = NC(Cc1ccccc1)C(=O)O; Cbz = O=C(OCc1ccccc1)*; CH2Cl = ClC*

Experiments:
[1] = Cytotoxicity against African green monkey Vero E6 cells by MTT assay; type: toxicity, cell-based, Vero C1008; details: chlorocebus sabaeus
[2] = Antiviral activity against Human coronavirus NL63 infected in HEK293T cells expressing human ACE2 assessed as inhibition of viral replication incubated for 2 days by Dual-Glo luciferase assay; type: functional, cell-based; details: Human coronavirus NL63, HEK-293T, 48 h
[3] = Cytotoxicity against human HEK293T cells; type: toxicity, cell-based, HEK-293T
[4] = tested on: Middle East respiratory syndrome-related coronavirus; assay: Antiviral activity against recombinant MERS-CoV pseudovirus infected in Vero cells assessed as inhibition of viral replication incubated for 2 days by Dual-Glo luciferase assay; type: functional, organism-based; details: 48 h
[5] = tested on: Middle East respiratory syndrome-related coronavirus; assay: Antiviral activity against wild type MERS-CoV infected in HEK293T/17 cells assessed as inhibition of viral replication by immunoblotting assay; type: functional, organism-based
SARS-CoV [6] = assay: Antiviral activity against SARS-CoV infected in HEK293T cells assessed as reduction in viral replication incubated for 7 hrs by luciferase assay; type: functional, organism-based; details: Severe acute respiratory syndrome-related coronavirus, HEK-293T
Procathepsin L [7] = biological target: T1, Procathepsin L (Homo sapiens, UniProt P07711); assay: Inhibition of human liver Cathepsin L using Z-Phe-Arg-AMC as substrate incubated for 30 mins by fluorometric assay
Ebolavirus [8] = assay: Antiviral activity against Ebolavirus infected in HEK293T cells assessed as reduction in viral replication incubated for 7 hrs by luciferase assay; type: functional, organism-based; details: Orthoebolavirus, HEK-293T
SARS-CoV [9] = type: functional, organism-based; details: Severe acute respiratory syndrome-related coronavirus, Vero C1008, 48 h
[10] = Cytotoxicity against human HEK293T cells by XTT assay; type: toxicity, cell-based, HEK-293T
[11] = biological target: Replicase polyprotein 1ab (Severe acute respiratory syndrome coronavirus 2) (UniProt P0DTD1); assay: Inhibition of recombinant SARS-COV2 main protease using Mca-AVLQ-SGFR-Lys-NH2 as substrate at 1 uM by FRET based cleavage assay
[12] = Cytotoxicity against African green monkey Vero E6 cells by CCK-8 assay; type: toxicity, cell-based, Vero C1008; details: chlorocebus sabaeus
Zika virus = assay: Antiviral activity against Zika virus MR766 infected in Vero cells assessed as reduction in viral replication by plaque reduction assay; type: functional, organism-based
Ebolavirus [13] = type: functional, organism-based; details: Orthoebolavirus, Vero C1008, 120 h
SARS-CoV-2 [14] = type: functional, organism-based; details: Severe acute respiratory syndrome coronavirus 2, Vero C1008, 48 h
[15] = biological target: Disintegrin and metalloproteinase domain-containing protein 17 (Mus musculus, UniProt Q9Z0F8); assay: Inhibition of mouse ADAM17 expressed in HEK293 cells overexpressed with ACE2 assessed as inhibition of ACE2 shedding incubated for 65 mins in presence of PMA by immunoblotting assay; type: cell-based
SARS-CoV [16] = type: functional, organism-based; details: Severe acute respiratory syndrome-related coronavirus, HEK-293T, 48 h
Procathepsin L [17] = biological target: T1, Procathepsin L; assay: Inhibition of recombinant Cathepsin L (unknown origin) using Z-Phe-Arg-AMC as substrate by fluorometric assay
SARS-CoV-2 [18] = type: functional, organism-based; details: Severe acute respiratory syndrome coronavirus 2, Vero C1008, 48 h; remark: listed apart in the source
[19] = Selectivity index. ratio of CC50 for cytotoxicity against African green monkey Vero E6 cells to EC50 for antiviral activity against wild type SARS-CoV BJ01 infected in Vero E6 cells; type: toxicity, cell-based, Vero C1008; details: read-out: Ratio CC50/EC50
SARS-CoV [20] = type: functional, organism-based; details: Severe acute respiratory syndrome-related coronavirus, BJ01, Vero C1008, 64 h
[21] = biological target: Replicase polyprotein 1ab (Severe acute respiratory syndrome coronavirus 2, UniProt P0DTD1); assay: Inhibition of SARS-COV2 main protease using Mca-AVLQ-SGFR-K as substrate by Fluorescence microplate reader assay
SARS-CoV [22] = assay: Antiviral activity against SARS-CoV infected in HEK293 cells expressing human ACE2 assessed as inhibition of viral replication measured after 40 hrs by luciferase assay; type: functional, organism-based; details: Severe acute respiratory syndrome-related coronavirus, HEK293, 40 h
SARS-CoV-2 [23] = type: functional, organism-based; details: Severe acute respiratory syndrome coronavirus 2, Vero C1008, 96 h
SARS-CoV-2 [24] = type: functional; details: Severe acute respiratory syndrome coronavirus 2, Vero C1008; time 18 hrs; read-out: ED50 (the source's name)
SARS-CoV [25] = assay: Antiviral activity against SARS-CoV infected in HeLa cells expressing human TMPRSS2 assessed as inhibition of viral replication at 10 uM measured after 20 hrs in presence of EST by fluorescence microscopy; type: functional; details: Severe acute respiratory syndrome-related coronavirus
SARS-CoV [26] = assay: Antiviral activity against SARS-CoV infected in HeLa cells expressing human TMPRSS2 assessed as inhibition of viral replication measured after 20 hrs by fluorescence microscopy; type: functional, organism-based; details: Severe acute respiratory syndrome-related coronavirus
SARS-CoV [27] = assay: Antiviral activity against SARS-CoV infected in HeLa cells expressing human TMPRSS2 assessed as inhibition of viral replication at 100 uM measured after 20 hrs by fluorescence microscopy; type: functional; details: Severe acute respiratory syndrome-related coronavirus
[28] = tested on: Middle East respiratory syndrome-related coronavirus; assay: Antiviral activity against recombinant MERS-CoV pseudovirus infected in Huh-7 cells assessed as inhibition of viral replication measured after 72 hrs by luminometer; type: functional, organism-based; details: Huh-7, 72 h
[29] = Cytotoxicity against human Huh-7 cells incubated for 3 days by XTT assay; type: toxicity, cell-based; details: time 3 day
SARS-CoV [30] = type: functional, organism-based; details: Severe acute respiratory syndrome-related coronavirus, Vero C1008
[31] = Selectivity index. ratio of CC50 for cytotoxicity against human Huh-7 cells to IC50 for antiviral activity against MERS-CoV pseudovirus infected in Huh-7; type: toxicity, cell-based; details: read-out: Ratio CC50/IC50

Disintegrin and metalloproteinase domain-containing protein 17, sequence (Q9Z0F8 whole entry, the tested form may be a part): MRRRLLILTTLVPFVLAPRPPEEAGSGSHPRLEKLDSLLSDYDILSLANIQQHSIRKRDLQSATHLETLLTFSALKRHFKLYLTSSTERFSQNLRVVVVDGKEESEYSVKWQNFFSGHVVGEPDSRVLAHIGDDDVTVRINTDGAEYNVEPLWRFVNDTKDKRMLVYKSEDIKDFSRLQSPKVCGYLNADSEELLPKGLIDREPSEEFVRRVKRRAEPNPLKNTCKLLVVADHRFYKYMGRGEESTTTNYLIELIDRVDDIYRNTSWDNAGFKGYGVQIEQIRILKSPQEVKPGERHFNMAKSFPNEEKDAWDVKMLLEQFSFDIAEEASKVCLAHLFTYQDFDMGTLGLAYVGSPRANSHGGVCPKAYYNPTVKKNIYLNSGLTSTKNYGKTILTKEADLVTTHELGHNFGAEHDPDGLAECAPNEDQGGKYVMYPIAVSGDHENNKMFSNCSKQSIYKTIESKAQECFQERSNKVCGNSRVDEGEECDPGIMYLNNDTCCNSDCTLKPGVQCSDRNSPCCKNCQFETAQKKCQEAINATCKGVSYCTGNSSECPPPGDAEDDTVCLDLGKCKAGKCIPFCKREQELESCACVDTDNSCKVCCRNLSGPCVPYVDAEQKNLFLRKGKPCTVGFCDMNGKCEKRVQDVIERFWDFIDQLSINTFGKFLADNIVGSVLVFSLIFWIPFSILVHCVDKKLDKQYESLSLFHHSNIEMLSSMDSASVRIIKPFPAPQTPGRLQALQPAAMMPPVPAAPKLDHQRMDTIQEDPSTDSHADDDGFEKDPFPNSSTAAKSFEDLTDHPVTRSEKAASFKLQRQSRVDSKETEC
T1 sequence (P07711 whole entry): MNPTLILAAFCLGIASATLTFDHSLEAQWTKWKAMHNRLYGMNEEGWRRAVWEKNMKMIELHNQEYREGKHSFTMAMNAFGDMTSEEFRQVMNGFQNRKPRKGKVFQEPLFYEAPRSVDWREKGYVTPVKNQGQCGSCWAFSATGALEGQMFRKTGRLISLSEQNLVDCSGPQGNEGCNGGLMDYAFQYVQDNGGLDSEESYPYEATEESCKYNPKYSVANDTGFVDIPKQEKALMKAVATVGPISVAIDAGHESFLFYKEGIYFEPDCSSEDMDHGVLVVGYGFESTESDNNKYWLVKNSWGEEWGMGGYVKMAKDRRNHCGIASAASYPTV

## O=c1c(O)c(-c2ccc(O)c(O)c2)oc2cc(O)cc(O)c12 [QUERCETIN]
[1]
  CC50: 3.32 µM

## CN1CCN(C(=O)N[C@@H](Cc2ccccc2)C(=O)N[C@H](/C=C/S(=O)(=O)c2ccccc2)CCc2ccccc2)CC1 [K-777]
[2]
  IC50: < 0.007 µM
[3]
  CC50: > 10 µM
[4]
  IC50: 0.046 µM

## CCCCCCCCCC(=O)N[C@@H](CCCNC(=N)N)C(=O)N[C@H](C(=O)N[C@@H](CCCCN)C(=O)N[C@@H](CCCNC(=N)N)C(=O)CCl)C(C)C (Decanoyl-RVKR-CH2Cl)
[5]
  IC50: 75 µM

## CC(C)(C)OC(=O)N[C@@H](Cc1c[nH]c2ccccc12)C(=O)NNC(=O)OCC(=O)N1CCCc2ccccc21
SARS-CoV [6]
  IC50: 273 µM
Procathepsin L [7]
  IC50: 6.9 µM
Ebolavirus [8]
  IC50: 193 µM

## CCC(CC)COC(=O)[C@H](C)N[P@](=O)(OC[C@H]1O[C@@](C#N)(c2ccc3c(N)ncnn23)[C@H](O)[C@@H]1O)Oc1ccccc1
SARS-CoV [9]
  EC50: 0.069 µM

## CN1CCN(c2ccc(CNC(=O)c3ccno3)cc2)CC1
[10]
  CC50: > 100 µM

## O=C[C@H](C[C@@H]1CCNC1=O)NC(=O)[C@H](Cc1cccc(F)c1)NC(=O)c1cc2ccccc2[nH]1
[11]
  inhibition: 86%
[12]
  CC50: > 100 µM

## NC(=O)c1nc(F)cnc1O
Zika virus
  EC50: 3.5 µg/mL (≈ 22.3 µM)
[12]
  CC50: > 400 µM
Ebolavirus [13]
  EC50: 10.5 µg/mL (≈ 66.8 µM)

## NC(=O)c1ncn([C@@H]2O[C@H](CO)[C@@H](O)[C@H]2O)n1 [RIBAVIRIN]
[12]
  CC50: > 400 µM

## O=C[C@H](C[C@@H]1CCNC1=O)NC(=O)[C@H](CC1CCCCC1)NC(=O)c1cc2ccccc2[nH]1
[11]
  inhibition: 100%
[12]
  CC50: > 100 µM

## CCN(CCO)CCCC(C)Nc1ccnc2cc(Cl)ccc12 (stereo unspecified) [HYDROXYCHLOROQUINE]
SARS-CoV-2 [14]
  EC50: 0.72 µM

## CC(C)CC(CC(=O)NO)C(=O)N[C@H](C(=O)N[C@@H](C)C(=O)NCCN)C(C)(C)C (stereo partly specified)
[15]
  IC50: 0.2 µM

## C/C(=N\NC(N)=S)c1cccs1
SARS-CoV [16]
  EC50: 6.4 µM
[10]
  CC50: < 100 µM
Procathepsin L [17]
  IC50: 5.33 µM

## Cc1cccc(C)c1OCC(=O)N[C@@H](Cc1ccccc1)[C@@H](O)C[C@H](Cc1ccccc1)NC(=O)[C@H](C(C)C)N1CCCNC1=O [LOPINAVIR]
SARS-CoV-2 [18]
  EC50: 26.1 µM

## O=c1cc(-c2ccc(O)c(O)c2)oc2cc(O)cc(O)c12 [LUTEOLIN]
[1]
  CC50: 0.155 µM
[19]
  selectivity ratio: 14.6
SARS-CoV [20]
  EC50: 10.6 µM

## Cn1sc(=O)n(Cc2ccccc2)c1=O
[21]
  IC50: 2.5 µM

## CC(C)[C@H](NC(=O)OCc1ccccc1)C(=O)NC(C=O)Cc1ccccc1 (stereo partly drawn) (Cbz-Val-[ξF]-aldehyde)
SARS-CoV [22]
  EC50: 0.1 µM

## Cc1cc(C(=O)N[C@@H](C)C(=O)N[C@H](C(=O)N[C@@H](CC(C)C)C(=O)N[C@H](/C=C\C(=O)OCc2ccccc2)C[C@@H]2CCNC2=O)C(C)C)no1
SARS-CoV-2 [23]
  EC50: 16.8 µM

## CCN(CC)CCCC(C)Nc1ccnc2cc(Cl)ccc12 (stereo unspecified) [CHLOROQUINE]
SARS-CoV-2 [18]
  EC50: 1.13 µM
SARS-CoV-2 [24]
  EC50: 4.4 µM
[12]
  CC50: > 100 µM

## CC(C)C[C@H](CC(=O)NO)C(=O)N[C@@H](Cc1ccc2ccccc2c1)C(=O)N[C@@H](C)C(N)=O
[15]
  IC50: 0.1 µM

## Nc1nc2c(ncn2CCC(CO)CO)c(=O)[nH]1 [PENCICLOVIR]
SARS-CoV [9]
  EC50: 96 µM
[12]
  CC50: > 400 µM

## CN(C)C(=O)COC(=O)Cc1ccc(OC(=O)c2ccc(NC(=N)N)cc2)cc1 [CAMOSTAT]
SARS-CoV [25]
  inhibition at 10 µM: > 95%
SARS-CoV [26]
  IC50: 10 µM
SARS-CoV [27]
  inhibition at 100 µM: 65%

## COc1ccc(S(=O)(=O)O)cc1/N=N/c1c(S(=O)(=O)O)cc2cc(Nc3nc(Nc4ccccc4)nc(Nc4cc(C)c(/N=N/c5cc(S(=O)(=O)O)cc6cc(S(=O)(=O)O)cc(O)c56)cc4OC)n3)ccc2c1O
[28]
  IC50: 0.6 µM
[29]
  CC50 at 72 h: 26.9 µM
SARS-CoV [30]
  IC50: 3.89 µM
[31]
  selectivity ratio: 45

## O=C(OC[C@H]1O[C@@H](OC(=O)c2cc(O)c(O)c(O)c2)[C@H](OC(=O)c2cc(O)c(O)c(O)c2)[C@H](OC(=O)c2cc(O)c(O)c(O)c2)[C@@H]1O)c1cc(O)c(O)c(O)c1
[1]
  CC50: 1.08 µM
[19]
  selectivity ratio: 240
SARS-CoV [20]
  EC50: 4.5 µM
